Read-outs that look alike come from different tables or passages of the source.
Columns and labels:
[1] = Isoelectric point (PI) measurement; assay type: physicochemical; details: unlabeled compound
[2] = system: HUTU-80 human duodenal adenocarcinoma cell line; assay: Cell uptake and inhibition assay, HUTU-80; assay type: cell-based
Method: The cell lines involved in the cell experiments in the test examples include: SUM149PT human breast cancer cell line, HUTU-80 human duodenal adenocarcinoma cell line, and U-118 MG human brain astrocytoma/glioblastoma cell line.
HUTU-80: Complete medium was formulated using DMEM high-glucose medium, 10% FBS, and a penicillin-streptomycin solution. The cells were cultured in a constant temperature incubator at 37° C. with 5% CO2. The culture medium was regularly replaced, and the cells were passaged. The culture medium was generally changed every 2 to 3 days. The growth of the tumor cells was observed daily under a microscope, including monitoring cell growth status, checking for adherence, examining cell morphology for any abnormalities, checking for contamination, and observing medium color for any abnormalities. Cells were passaged when they reached 80-90% confluence.
When cell confluence in the culture flask reached 80%, the cells were digested and centrifuged, and the supernatant was removed. An appropriate amount of medium was added to dilute so that each well contained 500 μL of medium for plating. After thorough mixing by pipetting, the cell suspension was seeded into a 24-well plate at a density of 5×10^5 cells per well. The plate was then placed into the incubator for continued growth. The cells were ready for cellular experiments when they reached 80% confluence.
(1) The cell uptake assay established four incubation time points: 15, 30, 60, and 120 minutes, respectively. For each time point, four groups were set up: non-inhibition group, a first single inhibition group (FAP single inhibition), a second single inhibition group (CXCR4/GRPR/αvβ3 single inhibition), and a dual inhibition group (FAP inhibitor+CXCR4/GRPR/αvβ3 inhibitor). Each group at each time point was set up with 3 triplicate wells.
(§1) (2) Cells were plated into a 24-well plate according to the cell plating procedure described above.
(3) The original culture medium was removed from the 24-well plate. Then, 400 μL of 100 mg/mL skimmed milk solution was added to each well for blocking for one hour. After removing the skimmed milk solution, each of the wells was washed three times by adding 400 μL of PBS solution. Subsequently, 146 μL of FBS-free medium was added to each well. […]
(6) The radioactivity in the cells was measured using a γ counter. […]

[3] = system: HUTU-80 human duodenal adenocarcinoma cell line; assay: Cell saturation binding assay, HUTU-80; details: 68Ga-labeled compound
Method: (1) For the cell saturation binding assay, a total of 8 radiolabeled ligand concentrations were set at intervals within the anticipated range. For each concentration, there were 3 groups: the non-inhibition group, the first single inhibition group (FAP single inhibition group), and the second single inhibition group (CXCR4/GRPR/αvβ3 single inhibition group). For each concentration and each group, 3 replicate wells were established.
as §1
(3) The original culture medium was removed from the 24-well plate. Then, 400 μL of 100 mg/mL skimmed milk solution was added to each well for blocking for one hour. After removing the skimmed milk solution, each of wells was washed three times by adding 400 μL of PBS solution. Subsequently, 146 μL of FBS-free medium was added to each well. Next, the non-inhibition group received 4 μL of cold PBS per well, while the first single inhibition group and the second single inhibition group received the following additions per well according to Table 4: 2 μL of non-radiolabeled first single inhibitor solution and 2 μL of cold PBS; 2 μL of non-radiolabeled second single inhibitor solution and 2 μL of cold PBS. The plate was then incubated at room temperature for one hour.
(4) The ligands were radiolabeled with 68Ga using the labeling method described previously. Different volumes of FBS-free medium were added to formulate the radioligand systems at corresponding concentrations. Then, 50 μL of the corresponding concentration of the radioligand system was added to each well.
(5) The supernatant was removed, and the wells were washed three times with 400 μL of PBS. 200 μL of IM NaOH solution was added to each well for cell lysis. […] Each well was washed once with 400 μL of PBS solution, and the washings were sequentially added to the corresponding radioimmunoassay tubes.
(6) Radioactivity in the cells was measured using a γ counter. The equilibrium dissociation constant (KD) was obtained by fitting the curve using nonlinear regression analysis in GraphPad Prism software. KD is the drug concentration that causes half of the maximum effect (50% receptor occupancy).

For `CC(C)CC(CC(C)C)NC(=O)[C@H](Cc1cnc[nH]1)NC(=O)CNC(=O)C(NC(=O)[C@H](C)NC(=O)[C@H](Cc1c[nH]c2ccccc12)NC(=O)[C@H](CCC(N)=O)NC(=O)[C@@H](Cc1ccccc1)NC(=O)COCC(=O)Nc1ccc(CNC(=O)COCCOCCNC(=O)COCCOCCNC(=O)[C@H](CCCCNC(=O)CN2CCN(CC(=O)O)CCN(CC(=O)O)CCN(CC(=O)O)CC2)NC(=O)CCC(=O)N2CCN(CCCOc3ccc4nccc(C(=O)NCC(=O)N5CC(F)(F)C[C@H]5C#N)c4c3)CC2)cc1)C(C)C` (stereo partly drawn) [SDYD03], the “PI range of series of peaks” value [1] was 5.992-7.095, the “cell uptake over incubation time (in words)” value ([2]; 15-120 minutes) was “increased slowly and reached a plateau from 15 to 120 minutes” and the “cell uptake, comparison of non-inhibition, FAP single, GRPR single and dual inhibition groups (in words)” value ([2]; FAPI-04 and BBN as inhibitors) was “cell uptake in the non-inhibition group was consistently higher than that in the other three groups”. The “inhibition rate, comparison of inhibition groups (in words)” value ([2]; FAPI-04 and BBN as inhibitors) was “inhibition rate of the dual inhibition group was higher than that of the FAP single inhibition group and the GRPR single inhibition group”, the “specific binding to FAP and GRPR (in words)” value ([2]; conclusion from inhibition groups) was “can specifically bind to both FAP and GRPR” and the “KD values / binding affinity to the receptors (in words)” value [3] was “relatively low KD values”. It also gave a Kd ([3]; BBN solution (GRPR inhibitor), read-out: KD value, Second single inhibition group (CXCR4/GRPR/αvβ3 single inhibition)) of 1.76 ± 0.224 nM, a Kd ([3]; FAPI-04 solution, read-out: KD value, First single inhibition group (FAP single inhibition)) of 0.884 ± 0.152 nM and a Kd ([3]; read-out: KD value, Non-inhibition group) of 1.23 ± 0.331 nM.

Source: patent US20260069728A1, “MULTI-TARGETING COMPOUND AND USE THEREOF” (Chengdu Shetai Medical Technology Co., Ltd., priority 2023, published 2026)
